Activity calls are given as the source filed them. The rule behind the calls is not given here.
Legend:
HaCaT [1] = test: Effect on mitochondrial membrane potential in human HaCaT cells after 1 hr by Rhodamine 123 staining based fluorescence assay; assay type: ADME, cell-based
[2] = Induction of Hydrogen sulfide production at pH 5 to 8 measured upto 15 hrs by UV-vis method based zinc-sulfide precipitation based methylene blue Method; assay type: physicochemical; conditions: pH 5, 15 h
HaCaT [3] = test: Toxicity in human HaCaT cells assessed as H2O2-induced decrease in cell viability at 400 uM after 1 hr by CCK8 assay; assay type: cell-based
HaCaT [4] = test: Cytoprotective in human HaCaT cells assessed as inhibition of H2O2-induced decrease in mitochondrial membrane potential at 200 uM preincubated for 1 hr followed by H2O2 addition by Rhodamine 123 staining based fluorescence assay; assay type: functional, cell-based
HaCaT [5] = test: Cytoprotective activity in human HaCaT cells assessed as inhibition of H2O2-induced decrease in cell viability at 50 to 200 uM after 1 hr by CCK8 assay; assay type: functional, cell-based
HaCaT [6] = test: Cytoprotective activity in human HaCaT cells assessed as inhibition of H2O2-induced decrease in LDH release at 200 uM; assay type: functional, cell-based

Activity [2] | Sequence | Activity (HaCaT [1]) | Activity (HaCaT [3]) | Activity (HaCaT [4]) | Activity (HaCaT [5]) | Activity (HaCaT [6])
Active | TIOMOLIBDATE DIAMMONIUM [listing 1 of 2 here] | Non-toxic | Toxic |  |  | 
 | TIOMOLIBDATE DIAMMONIUM [listing 2 of 2 here] |  |  | Active | Active | Active
